# Values quoted from earlier work, collected in publication PMC7468272 (Acta Pharmacologica Sinica, 2019).
# Test system: CBP/p300
smiles,measurement,value
CO[C@H]1CC[C@H](n2c([C@@H]3CCCC(=O)N3c3ccc(F)c(F)c3)nc3cc(-c4c(C)noc4C)ccc32)CC1 [CCS1477],affinity for CBP/p300,single-digit nanomolar affinity
